Where two headings read alike, the source gives them in different places. Where a SMILES comes first, the peptide text is derived from it. The star is where a group is joined. Cbz = O=C(OCc1ccccc1)*
How the values were obtained:
MARK2 [1] = target: T1, MARK2 (Mus musculus, UniProt Q05512); test: cell-based MARK2 kinase activity assay based on eIF2α phosphorylation (immunoblot of MEFs); settings: for activity in inhibiting the phosphorylation of eIF2α: comparison of seven drugs, FIG. 21E; for phosphorylation level of eIF2α-51S: FIG. 21B
T1 construct: endogenous in cells; host or cells: mouse embryonic fibroblasts (MEFs)
T1 sequence (Q05512 whole entry): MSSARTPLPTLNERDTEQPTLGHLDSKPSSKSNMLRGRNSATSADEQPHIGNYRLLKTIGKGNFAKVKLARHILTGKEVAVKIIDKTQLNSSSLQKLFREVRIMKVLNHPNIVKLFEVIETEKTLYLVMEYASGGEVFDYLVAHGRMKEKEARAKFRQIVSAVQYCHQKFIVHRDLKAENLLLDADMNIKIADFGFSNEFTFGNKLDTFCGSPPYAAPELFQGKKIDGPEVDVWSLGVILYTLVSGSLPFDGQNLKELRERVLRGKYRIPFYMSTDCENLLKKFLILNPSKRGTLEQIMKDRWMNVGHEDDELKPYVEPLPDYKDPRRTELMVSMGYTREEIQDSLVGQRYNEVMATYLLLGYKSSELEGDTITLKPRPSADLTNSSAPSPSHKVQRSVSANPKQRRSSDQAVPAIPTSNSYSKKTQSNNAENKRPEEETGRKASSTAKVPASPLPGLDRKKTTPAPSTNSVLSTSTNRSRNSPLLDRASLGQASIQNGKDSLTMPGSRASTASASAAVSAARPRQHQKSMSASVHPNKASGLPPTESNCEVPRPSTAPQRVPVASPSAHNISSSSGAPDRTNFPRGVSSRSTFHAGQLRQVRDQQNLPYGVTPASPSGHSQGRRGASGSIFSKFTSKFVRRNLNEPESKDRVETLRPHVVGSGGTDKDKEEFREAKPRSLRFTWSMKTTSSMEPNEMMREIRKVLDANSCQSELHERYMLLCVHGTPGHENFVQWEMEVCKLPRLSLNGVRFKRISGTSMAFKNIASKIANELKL
Description: Cells were washed twice with 1× PBS and then lysed and harvested on ice in RIPA solution (50 mM Tris-HCl (pH 7.6); 150 mM NaCl; 1% NP-40; 1% SDS; 100 mM sodium fluoride; 17.5 mM β-glycerophosphate; 0.5% sodium deoxycholate; 10% glycerol). The RIPA buffer was supplemented with EDTA-free protease inhibitor cocktail (Roche, USA), phosphatase inhibitor cocktail 2 and phosphatase inhibitor cocktail 3 (Sigma-Aldrich, USA), 1 μM phenylmethanesulfonyl fluoride, and 2 μM sodium orthovanadate. Lysates were kept cold on ice, pulse-sonicated for 10 min, and then centrifuged at 12,000 g at 4° C. for 10 min. The protein content of each sample was determined by a bicinchoninic acid (BCA) assay (Thermo Fisher). Equal amounts of total protein extract were resolved by SDS-PAGE and transferred to nitrocellulose membranes (Millipore HATF08550, USA). The blots were blocked with 5% w/v BSA and 0.05% NaN3 in TBST and incubated with primary antibodies at 4° C. overnight, then finally incubated with appropriate secondary antibodies. The antibodies used include those against eIF2α (Cell Signaling 5324, USA), peIF2α (Cell Signaling 9721), PERK (Cell Signaling 3192), pPERK-^980T (Cell Signaling 3179), PKR (Santa Cruz SC-708 and SC-6282), HRI (Millipore 07-728), GCN2 (Cell Signaling 3302), pGCN2-899T (Abcam ab75836, USA), ATF4 (Cell Signaling 11815), HSP90 (Cell Signaling 8165), HSP70 (Cell Signaling 4872), Flag (Sigma F1804), Actin (Santa Cruz SC-47778), Tubulin (Proteintech 10068-1-AP, USA), PKCδ (Santa Cruz SC-937; Cell Signaling 2058), pPKCδ-311Y (Cell Signaling 2055), pPKCδ-^505T (Cell Signaling 9374), MARK2 (Abcam ab135816; Santa Cruz SC-365405), pMARK2-^595T (Abcam ab34751), PP1a (Cell Signaling 2582), pPP1α-^320T (Cell Signaling 2581), and puromycin (Millipore MABE343). Images were captured with an Odyssey imager and analyzed with Image Studio software (Licor 9120, USA).

MARK2 [2] = settings: previous report; cited from earlier work
[3] = tested on: PKCδ-MARK2-eIF2α signaling pathway; type: cell-based, mouse
Description: Since the phosphorylation of MARK2 at threonine 595 is required for its positive regulation of eIF2α phosphorylation (FIG. 1E), we asked whether this form of phosphorylated MARK2 is regulated upon cytosolic protein misfolding stress.
The condition of MG132 treatment at 20 μM for 4 h was chosen for optimal induction of eIF2α phosphorylation in the analysis of these MEFs (FIG. 9D). To test whether activation of MARK2 also can be induced by other types of stress, we subjected the cells to oxidative stress, such as sodium arsenite treatment, or ER stress, such as tunicamycin treatment.
Cells were washed twice with 1× PBS and then lysed and harvested on ice in RIPA solution (50 mM Tris-HCl (pH 7.6); 150 mM NaCl; 1% NP-40; 1% SDS; 100 mM sodium fluoride; 17.5 mM β-glycerophosphate; 0.5% sodium deoxycholate; 10% glycerol). The RIPA buffer was supplemented with EDTA-free protease inhibitor cocktail (Roche, USA), phosphatase inhibitor cocktail 2 and phosphatase inhibitor cocktail 3 (Sigma-Aldrich, USA), 1 μM phenylmethanesulfonyl fluoride, and 2 μM sodium orthovanadate. Lysates were kept cold on ice, pulse-sonicated for 10 min, and then centrifuged at 12,000 g at 4° C. for 10 min. The protein content of each sample was determined by a bicinchoninic acid (BCA) assay (Thermo Fisher). Equal amounts of total protein extract were resolved by SDS-PAGE and transferred to nitrocellulose membranes (Millipore HATF08550, USA). The blots were blocked with 5% w/v BSA and 0.05% NaN3 in TBST and incubated with primary antibodies at 4° C. overnight, then finally incubated with appropriate secondary antibodies.

[4] = tested on: interaction between PKCδ and HSP90; test: coimmunoprecipitation of HSP90 by anti-PKCδ antibody in MEFs; type: cell-based, mouse; settings: MEF cells treated with MG132
Description: We next investigated how the PKC&-MARK2-eIF2α signaling pathway senses protein misfolding stress. Since misfolded proteins, including SOD1, are prone to interact with molecular chaperone proteins, Wang et al., 2009; Tummala et al., 2005, we reasoned that the upstream regulator PKCδ could potentially interact with a molecular chaperone and that disruption of this interaction by misfolded proteins during proteotoxic stress might be a mechanism to account for the activation of the PKCδ kinase. We searched a protein-protein interaction database, Szklarczyk et al., 2015, and identified several candidate interactors of PKCδ, including HSP90, HSP90a, and HSP70. To evaluate potential interactions between PKCδ and these molecular chaperones, we performed coimmunoprecipitation experiments with endogenous proteins in MEF cells. After immunoprecipitation of PKCδ, only HSP90 was pulled down by PKCδ (FIG. 3A). When the level of PKCδ protein was elevated via stable expression in MEF cells, more HSP90 protein could be coimmunoprecipitated by PKCδ. Conversely, depletion of PKCδ from MEFs or use of an IgG control instead of the anti-PKCδ antibody abolished the coimmunoprecipitation of HSP90, confirming the specific interaction between PKCδ and HSP90 (FIG. 3A). […]

[5] = WT and 4-KO MEFs, sodium arsenite 200 μM, 1 h

Compound: Cn1cc(C2=C(c3ccc(Cl)cc3Cl)C(=O)NC2=O)c2ccccc21 [SB216763]
- phosphorylation of eIF2α-51S (MARK2 [1]; MEFs, 20 μM, 1 hr, versus DMSO control, FIG. 21A): substantially reduces the phosphorylation of eIF2α-^51S
- increase in the levels of phosphorylated eIF2α-51S in response to MG132 (MARK2 [1]; cell co-treatment with MG132): substantially diminished the increase
- activity in inhibiting the phosphorylation of eIF2α (MARK2 [1]): high activity for inhibiting eIF2α phosphorylation
- activity in inhibiting the phosphorylation of eIF2α (MARK2 [1]; listed as SB-216763): high activity
- MARK kinase function (MARK2 [2]): inhibited MARK kinase function

Compound: O=[As]O [sodium arsenite]
- phosphorylation of MARK2-595T [3, 5]: able to induce the phosphorylation
- phosphorylation of eIF2α-51S [3, 5]: able to induce the phosphorylation

Compound: CC(C)C[C@@H](C=O)NC(=O)[C@H](CC(C)C)NC(=O)[C@H](CC(C)C)NC(=O)OCc1ccccc1 [MG132] (Cbz-Leu-Leu-Leu-aldehyde)
- level of the ATF4 protein ([3]; MEF cells treated with MG132): increased the level of the ATF4 protein
- levels of phosphorylated MARK2-595T ([3]; MEF cells treated with MG132): substantial increase
- levels of phosphorylated eIF2α-51S ([3]; MEF cells treated with MG132): corresponding increase
- time at which phosphorylation of eIF2α-51S peaked ([3]; MEFs, MG132 20 μM time course): around 4 h
- interaction between PKCδ and HSP90 [4]: completely abolished the interaction between PKCδ and HSP90

Compound: COc1cc2ncnc(Nc3ccc(F)c(Cl)c3)c2cc1OCCCN1CCOCC1 [Gefitinib]
- phosphorylation level of eIF2α-51S (MARK2 [1]; MEFs, 40 μM, 1 hr, versus DMSO control): needs a higher concentration than CHIR99021 to achieve the similar effect
- activity in inhibiting the phosphorylation of eIF2α (MARK2 [1]): low activity

Compound: Cc1c[nH]c(-c2cnc(NCCNc3ccc(C#N)cn3)nc2-c2ccc(Cl)cc2Cl)n1 [CHIR99021]
- phosphorylation level of eIF2α-51S (MARK2 [1]; MEFs, 20 μM, 1 hr, versus DMSO control): decreased the phosphorylation level of eIF2α-^51S
- levels of phosphorylated eIF2α-51S (MARK2 [1]; at low concentrations): substantially lowering the levels of phosphorylated eIF2α-^51S
- activity in inhibiting the phosphorylation of eIF2α (MARK2 [1]): high activity

Compound: tunicamycin
- phosphorylation of MARK2-595T ([3]; MEFs, tunicamycin 24 μg/ml, 2 h): no effect on the phosphorylation of MARK2-^595T
- phosphorylation of eIF2α-51S ([3]; WT and 4-KO MEFs, tunicamycin 24 μg/ml, 2 h): induced the phosphorylation of eIF2α-^51S in WT MEFs but not in the cells lacking the 4 previously known kinases
